Experimental data taken from the NIST ThermoML archive (doi:10.1016/j.jct.2016.06.031).
Numbers after ± are expanded uncertainties.

Experiments:
[1] = Liquid; for vapor or sublimation pressure: Closed cell (Static) method; for mass density: 101.33 kPa, Vibrating tube method
[2] = refractive index (Na D-line) (dimensionless); conditions: 101.33 kPa, Liquid, Standard Abbe refractometry

Row | mass density ([1]; 293.15 K) [kg/m3] | mass density ([1]; 295.15 K) [kg/m3] | mass density ([1]; 297.15 K) [kg/m3] | mass density ([1]; 298.15 K) [kg/m3] | mass density ([1]; 300.4 K) [kg/m3] | refractive index ([2]; 293.15 K) | refractive index ([2]; 298.15 K) | SMILES | vapor or sublimation pressure ([1]; 273.06 K) [kPa] | vapor or sublimation pressure ([1]; 278.07 K) [kPa] | vapor or sublimation pressure ([1]; 283.07 K) [kPa] | vapor or sublimation pressure ([1]; 288.07 K) [kPa] | vapor or sublimation pressure ([1]; 292.07 K) [kPa]
1 | – | – | – | – | – | – | – | FC(F)(F)C(F)(F)F [hexafluoroethane] | 1839 ± 6 | 2100 ± 6 | 2388 ± 7 | 2701 ± 7 | 2972 ± 8
2 | 683.8 ± 0.9 | 681.6 ± 0.9 | 679.9 ± 0.9 | 679.1 ± 0.9 | 677.1 ± 0.9 | 1.3878 ± 0.0007 | 1.3852 ± 0.0007 | CCCCCCC [heptane] | – | – | – | – | –
